Data on one molecule can be found in patent US20090247497A1, “FORMULATION AND USE OF ERGOSTA-7,22-DIEN-3BETA-OL” (priority 2008, published 2009).

The test system of the assay is human promyelocytic leukemia HL-60 cells. The experiment in a line: in vivo anti-tumor (anti-leukemia) study, HL-60 xenografts in nude mice. On the set-up: species or system Athymic nude mice (BALB/c nu/nu). The conditions noted are these: for % inhibition for 1.5 mg/kg/day dosage group: 1.5 mg/kg/day oral (gastric gavage), from relative tumor weight vs control. The protocol:
The following study on nude mice was conducted to investigate the in vivo anti-tumor activities, specifically the anti-leukemia effects, of ergosta-7,22-dien-3β-ol.
Athymic nude mice (BALB/c nu/nu, with body weight of 20-25 g and aged 6-10 weeks) were kept in autoclaved cages with polyester fiber filters to avoid contact with the pathogens. All the animal diet and tap water were autoclaved before feeding to nude mice ad libitum.
Suspension of 1×10^7 of human promyelocytic leukemia HL-60 cells was then injected subcutaneously (s.c.) into the dorsal side of nude mice.
In this study, the tested item was the powders of ergosta-7,22-dien-3β-ol obtained according to the method described in Example 1 above.
When palpable tumors (about 100-200 mm^3 in volume) arose within 14-21 days after injection, the mice were randomly divided into three treatment groups and one control group in which each group consisted of 15 mice. Then, the mice in the treatment group were administrated with the tested item at three dose levels of 1.5, 15.0 or 50.0 mg (of tested item)/kg (of body weight of mouse)/day (in distilled water), while those mice in the control group were administrated with distilled water (as control vehicle). Both groups of mice were administrated by oral route (gastric gavage) daily (except Sundays) for up to 28 days. Tumor dimension was measured on every Mondays, Wednesdays and Fridays.
Tumor dimension was measured by Vernier caliper and tumor weight and tumor volume were calculated according to the following formulae:
Tumor weight (mg)=L×W^2×π/6; and
Tumor volume (mm^3)=L×W×H×π/6;
where L, W, and H were the major dimension, the minor dimension, and the height of the tumor respectively (π=3.1416).
The relative tumor weight was calculated by dividing the tumor weight on a certain day by the mean tumor weight on Day 1. Similarly, the relative tumor volume was calculated by dividing the tumor volume on a certain day by the mean tumor volume on Day 1.
Upon 28 days of administration, the nude mice were euthanized and the final body and tumor weights were recorded for calculating the ratio of the final tumor-to-body weight.
The above-shown results were expressed as the mean±SE of the percentage of inhibition of the tested item on the growth of HL-60 xenografts in nude mice in single experiments. Percentage of inhibition (for any Day n) was calculated from the following formula:
(1−relative tumor weight of treatment group on Day n/relative tumor weight of control group on Day n)×100%.

Setting [1] is: 1.5, 15.0 or 50.0 mg/kg/day oral, up to 28 days, all three treatment groups, 1.5 mg/kg/day most significant.

With `CC(C)[C@@H](C)/C=C/[C@@H](C)[C@H]1CC[C@H]2C3=CCC4C[C@@H](O)CC[C@]4(C)[C@H]3CC[C@]12C` (stereo partly drawn) [ergosta-7,22-dien-3β-ol], the Anti-tumor activity result (1.5, 15.0 and 50.0 mg/kg/day oral, HL-60 xenografts in nude mice) is “observed at all three dosage groups”. For the setting “1.5, 15.0 or 50.0 mg/kg/day oral, after 28 days, three treatment groups vs control, 1.5 mg/kg/day most significant”, the “percentage ratios of final tumor-to-body weight” value is reported as “lower than that of the control group”. Further, the relative tumor volume result under setting [1] is listed as “some effects in the reductions”. Also, the relative tumor weight entry under setting [1] is “some effects in the reductions”. The “% inhibition for 1.5 mg/kg/day dosage group” value is recorded as 0.00% (Day 1, HL-60 xenografts in nude mice); 11.35% (Day 3, HL-60 xenografts in nude mice); 11.24% (Day 5, HL-60 xenografts in nude mice); 23.69% (Day 8, HL-60 xenografts in nude mice); 31.65% (Day 10, HL-60 xenografts in nude mice); 32.32% (Day 12, HL-60 xenografts in nude mice). In addition, the “% inhibition for 1.5 mg/kg/day dosage group” value is on record as 30.61% (Day 15, HL-60 xenografts in nude mice); 34.99% (Day 17, HL-60 xenografts in nude mice); 43.19% (Day 19, HL-60 xenografts in nude mice); 38.94% (Day 22, HL-60 xenografts in nude mice); 40.57% (Day 24, HL-60 xenografts in nude mice); 44.32% (Day 26, HL-60 xenografts in nude mice).
